# Target: Transmembrane protease serine 4 (Homo sapiens) (UniProt Q9NRS4)
# Test: (§1) Inhibition of TMPRSS4 serine protease domain (Val 205 to Leu 437 residues) (unknown origin) expressed in Escherichia coli BL21 (DE3) at 30 uM using […]-Gln-Ala-Arg-7-amido-4-methylcoumarin hydrochloride substrate and measured for 5 mins at 5 mins intervals by fluorescence based assay relative to control
# Chain of Transmembrane protease serine 4 (Homo sapiens) (Q9NRS4 whole entry, the tested form may be a part): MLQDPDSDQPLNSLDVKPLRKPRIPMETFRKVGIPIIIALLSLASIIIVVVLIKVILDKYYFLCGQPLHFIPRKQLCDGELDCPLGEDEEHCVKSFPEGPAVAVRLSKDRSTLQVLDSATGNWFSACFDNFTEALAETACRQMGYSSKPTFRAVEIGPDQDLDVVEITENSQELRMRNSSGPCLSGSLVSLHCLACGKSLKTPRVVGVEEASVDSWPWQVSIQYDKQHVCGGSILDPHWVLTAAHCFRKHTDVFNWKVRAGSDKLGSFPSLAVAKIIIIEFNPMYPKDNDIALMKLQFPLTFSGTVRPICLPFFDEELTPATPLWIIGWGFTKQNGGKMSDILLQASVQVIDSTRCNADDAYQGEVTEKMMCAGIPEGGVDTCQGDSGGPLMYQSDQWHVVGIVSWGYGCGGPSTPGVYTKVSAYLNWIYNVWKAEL
row,SMILES,inhibition [%]
1,O=C(NCc1cc(C(F)(F)F)cc(C(F)(F)F)c1)c1cc(Cl)ccc1O,63
2,O=C(Nc1cc(C(F)(F)F)cc(C(F)(F)F)c1Cl)c1cc(Cl)ccc1O,100
3,O=C(Nc1cc(C(F)(F)F)ccc1Br)c1cc(Cl)ccc1O,100
4,O=C(Nc1cc(C(F)(F)F)cc(C(F)(F)F)c1)c1cc(Cl)cc(Cl)c1O,100
5,O=C(Nc1cc(C(F)(F)F)cc(C(F)(F)F)c1)c1ccc(Cl)cc1O,74
6,O=C(Nc1cc(C(F)(F)F)cc(C(F)(F)F)c1)c1cc2ccccc2cc1O,96
7,Cc1cc(Cl)cc(C(=O)Nc2cc(C(F)(F)F)cc(C(F)(F)F)c2)c1O,78
8,O=C(Nc1ccc(C(F)(F)F)cc1)c1cc(Cl)ccc1O,100
9,O=C(Nc1cc(C(F)(F)F)cc(C(F)(F)F)c1)c1cc([N+](=O)[O-])ccc1O,78
10,O=C(Nc1cccc(C(F)(F)F)c1C(F)(F)F)c1cc(Cl)ccc1O,77
11,O=C(Nc1cc(C(F)(F)F)cc(C(F)(F)F)c1)c1cccc(Cl)c1O,93
12,O=C(Nc1cc(C(F)(F)F)cc(C(F)(F)F)c1)c1cc(F)ccc1O,55
13,O=C(Nc1cc(C(F)(F)F)cc(C(F)(F)F)c1)c1ccc(C(F)(F)F)cc1O,79
14,O=C(Nc1cc(C(F)(F)F)cc(C(F)(F)F)c1)c1cc(Cl)ccc1OCc1ccccc1,6
15,COc1c(C(F)(F)F)cc(NC(=O)c2cc(Cl)ccc2O)cc1C(F)(F)F,80
16,Nc1ccc(O)c(C(=O)Nc2cc(C(F)(F)F)cc(C(F)(F)F)c2)c1,30
17,N#Cc1ccc(O)c(C(=O)Nc2cc(C(F)(F)F)cc(C(F)(F)F)c2)c1,53
18,O=C(Nc1cc(Cl)c(Cl)c(Cl)c1)c1cc(Cl)ccc1O,23
19,CC(=O)Oc1ccc(Cl)cc1C(=O)Nc1cc(C(F)(F)F)cc(C(F)(F)F)c1,4
20,O=C(Nc1cc(C(F)(F)F)cc(C(F)(F)F)c1)c1cc(-c2ccc(F)cc2F)ccc1O,31
21,O=C(Nc1cc(C(F)(F)F)ccc1C(F)(F)F)c1cc(Cl)ccc1O,54
22,O=C(Nc1cc(C(F)(F)F)cc(C(F)(F)F)c1)c1cnc2ccccc2c1O,0
23,O=C(Nc1cccc(C(F)(F)F)c1)c1cc(Cl)ccc1O,91
24,COc1ccc(O)c(C(=O)Nc2cc(C(F)(F)F)cc(C(F)(F)F)c2)c1,53
25,O=C(Nc1cc(Cl)cc(Cl)c1)c1cc(Cl)ccc1O,58
26,O=C(Nc1cc(C(F)(F)F)cc(C(F)(F)F)c1)c1cc(Br)ccc1O,84
27,O=C(Nc1cc(C(F)(F)F)cc(C(F)(F)F)c1)c1cc(Cl)cnc1O,19
28,CC(=O)Nc1ccc(O)c(C(=O)Nc2cc(C(F)(F)F)cc(C(F)(F)F)c2)c1,0
29,O=C(Nc1ccncc1Cl)c1cc(Cl)ccc1O,8

# Target: Transmembrane protease serine 4 (Homo sapiens) (UniProt Q9NRS4)
# Test: as §1, with “10” for “30”
row,SMILES,inhibition [%]
1,O=C(NCc1cc(C(F)(F)F)cc(C(F)(F)F)c1)c1cc(Cl)ccc1O,36
2,O=C(Nc1cc(C(F)(F)F)cc(C(F)(F)F)c1Cl)c1cc(Cl)ccc1O,43
3,O=C(Nc1cc(C(F)(F)F)ccc1Br)c1cc(Cl)ccc1O,40
4,O=C(Nc1cc(C(F)(F)F)cc(C(F)(F)F)c1)c1cc(Cl)cc(Cl)c1O,100
5,O=C(Nc1cc(C(F)(F)F)cc(C(F)(F)F)c1)c1ccc(Cl)cc1O,29
6,O=C(Nc1cc(C(F)(F)F)cc(C(F)(F)F)c1)c1cc2ccccc2cc1O,58
7,Cc1cc(Cl)cc(C(=O)Nc2cc(C(F)(F)F)cc(C(F)(F)F)c2)c1O,33
8,O=C(Nc1ccc(C(F)(F)F)cc1)c1cc(Cl)ccc1O,22
9,O=C(Nc1cc(C(F)(F)F)cc(C(F)(F)F)c1)c1cc([N+](=O)[O-])ccc1O,33
10,O=C(Nc1cccc(C(F)(F)F)c1C(F)(F)F)c1cc(Cl)ccc1O,29
11,O=C(Nc1cc(C(F)(F)F)cc(C(F)(F)F)c1)c1cccc(Cl)c1O,61
12,O=C(Nc1cc(C(F)(F)F)cc(C(F)(F)F)c1)c1cc(F)ccc1O,0
13,O=C(Nc1cc(C(F)(F)F)cc(C(F)(F)F)c1)c1ccc(C(F)(F)F)cc1O,32
14,O=C(Nc1cc(C(F)(F)F)cc(C(F)(F)F)c1)c1cc(Cl)ccc1OCc1ccccc1,0
15,COc1c(C(F)(F)F)cc(NC(=O)c2cc(Cl)ccc2O)cc1C(F)(F)F,56
16,Nc1ccc(O)c(C(=O)Nc2cc(C(F)(F)F)cc(C(F)(F)F)c2)c1,3
17,N#Cc1ccc(O)c(C(=O)Nc2cc(C(F)(F)F)cc(C(F)(F)F)c2)c1,15
18,O=C(Nc1cc(Cl)c(Cl)c(Cl)c1)c1cc(Cl)ccc1O,6
19,CC(=O)Oc1ccc(Cl)cc1C(=O)Nc1cc(C(F)(F)F)cc(C(F)(F)F)c1,0
20,O=C(Nc1cc(C(F)(F)F)cc(C(F)(F)F)c1)c1cc(-c2ccc(F)cc2F)ccc1O,5
21,O=C(Nc1cc(C(F)(F)F)ccc1C(F)(F)F)c1cc(Cl)ccc1O,46
22,O=C(Nc1cc(C(F)(F)F)cc(C(F)(F)F)c1)c1cnc2ccccc2c1O,0
23,O=C(Nc1cccc(C(F)(F)F)c1)c1cc(Cl)ccc1O,37
24,COc1ccc(O)c(C(=O)Nc2cc(C(F)(F)F)cc(C(F)(F)F)c2)c1,0
25,O=C(Nc1cc(Cl)cc(Cl)c1)c1cc(Cl)ccc1O,15
26,O=C(Nc1cc(C(F)(F)F)cc(C(F)(F)F)c1)c1cc(Br)ccc1O,54
27,O=C(Nc1cc(C(F)(F)F)cc(C(F)(F)F)c1)c1cc(Cl)cnc1O,0
28,CC(=O)Nc1ccc(O)c(C(=O)Nc2cc(C(F)(F)F)cc(C(F)(F)F)c2)c1,0

# Target: Transmembrane protease serine 4 (Homo sapiens) (UniProt Q9NRS4)
# Test: Inhibition of TMPRSS4 serine protease domain (Val 205 to Leu 437 residues) (unknown origin) expressed in Escherichia coli BL21 (DE3) using […]-Gln-Ala-Arg-7-amido-4-methylcoumarin hydrochloride substrate and measured for 5 mins at 5 mins intervals by fluorescence based assay relative to control
row,SMILES,inhibition
1,O=C(NCc1cc(C(F)(F)F)cc(C(F)(F)F)c1)c1cc(Cl)ccc1O,Dose-dependent effect
2,O=C(Nc1cc(C(F)(F)F)cc(C(F)(F)F)c1Cl)c1cc(Cl)ccc1O,Dose-dependent effect
3,O=C(Nc1cc(C(F)(F)F)ccc1Br)c1cc(Cl)ccc1O,Dose-dependent effect
4,O=C(Nc1cc(C(F)(F)F)cc(C(F)(F)F)c1)c1cc(Cl)cc(Cl)c1O,Dose-dependent effect
5,O=C(Nc1cc(C(F)(F)F)cc(C(F)(F)F)c1)c1ccc(Cl)cc1O,Dose-dependent effect
6,O=C(Nc1cc(C(F)(F)F)cc(C(F)(F)F)c1)c1cc2ccccc2cc1O,Dose-dependent effect
7,Cc1cc(Cl)cc(C(=O)Nc2cc(C(F)(F)F)cc(C(F)(F)F)c2)c1O,Dose-dependent effect
8,O=C(Nc1ccc(C(F)(F)F)cc1)c1cc(Cl)ccc1O,Dose-dependent effect
9,O=C(Nc1cc(C(F)(F)F)cc(C(F)(F)F)c1)c1cc([N+](=O)[O-])ccc1O,Dose-dependent effect
10,O=C(Nc1cccc(C(F)(F)F)c1C(F)(F)F)c1cc(Cl)ccc1O,Dose-dependent effect
11,O=C(Nc1cc(C(F)(F)F)cc(C(F)(F)F)c1)c1cccc(Cl)c1O,Dose-dependent effect
12,O=C(Nc1cc(C(F)(F)F)cc(C(F)(F)F)c1)c1cc(F)ccc1O,Dose-dependent effect
13,O=C(Nc1cc(C(F)(F)F)cc(C(F)(F)F)c1)c1ccc(C(F)(F)F)cc1O,Dose-dependent effect
14,O=C(Nc1cc(C(F)(F)F)cc(C(F)(F)F)c1)c1cc(Cl)ccc1OCc1ccccc1,Dose-dependent effect
15,COc1c(C(F)(F)F)cc(NC(=O)c2cc(Cl)ccc2O)cc1C(F)(F)F,Dose-dependent effect
16,Nc1ccc(O)c(C(=O)Nc2cc(C(F)(F)F)cc(C(F)(F)F)c2)c1,Dose-dependent effect
17,N#Cc1ccc(O)c(C(=O)Nc2cc(C(F)(F)F)cc(C(F)(F)F)c2)c1,Dose-dependent effect
18,O=C(Nc1cc(Cl)c(Cl)c(Cl)c1)c1cc(Cl)ccc1O,Dose-dependent effect
19,CC(=O)Oc1ccc(Cl)cc1C(=O)Nc1cc(C(F)(F)F)cc(C(F)(F)F)c1,Dose-dependent effect
20,O=C(Nc1cc(C(F)(F)F)cc(C(F)(F)F)c1)c1cc(-c2ccc(F)cc2F)ccc1O,Dose-dependent effect
21,O=C(Nc1cc(C(F)(F)F)ccc1C(F)(F)F)c1cc(Cl)ccc1O,Dose-dependent effect
22,O=C(Nc1cc(C(F)(F)F)cc(C(F)(F)F)c1)c1cnc2ccccc2c1O,Dose-dependent effect
23,O=C(Nc1cccc(C(F)(F)F)c1)c1cc(Cl)ccc1O,Dose-dependent effect
24,COc1ccc(O)c(C(=O)Nc2cc(C(F)(F)F)cc(C(F)(F)F)c2)c1,Dose-dependent effect
25,O=C(Nc1cc(Cl)cc(Cl)c1)c1cc(Cl)ccc1O,Dose-dependent effect
26,O=C(Nc1cc(C(F)(F)F)cc(C(F)(F)F)c1)c1cc(Br)ccc1O,Dose-dependent effect
27,O=C(Nc1cc(C(F)(F)F)cc(C(F)(F)F)c1)c1cc(Cl)cnc1O,Dose-dependent effect
28,CC(=O)Nc1ccc(O)c(C(=O)Nc2cc(C(F)(F)F)cc(C(F)(F)F)c2)c1,Dose-dependent effect
29,O=C(Nc1ccncc1Cl)c1cc(Cl)ccc1O,Dose-dependent effect

# Target: Transmembrane protease serine 4 (Homo sapiens) (UniProt Q9NRS4)
# Test: Inhibition of TMPRSS4 (unknown origin) expressed in human SW480 cells assessed as reduction in cell migration at 0.8 uM incubated for 48 hrs by crystal violet staining based assay relative to control
row,SMILES,inhibition [%]
1,O=C(Nc1cc(C(F)(F)F)cc(C(F)(F)F)c1)c1cc2ccccc2cc1O,72

# Source: ChEMBL document CHEMBL4417635, “2-hydroxyarylamide derivative or pharmaceutically acceptable salt thereof, preparation method thereof, and pharmaceutical composition for preventing or treating cancer containing same as active ingredient” (2013)
